Laboratory results published in ChEMBL document CHEMBL5532637, “Antimicrobial activity of natural and semi-synthetic carbazole alkaloids” (Eur J Med Chem, 2023).
Values after ≈ are worked out from the molar mass of the structure shown.

Key:
Staphylococcus aureus [1] = experiment: Antibacterial activity against Staphylococcus aureus assessed as inhibition of bacterial growth by broth dilution method; assay type: functional
Candida albicans [2] = experiment: Antifungal activity against Candida albicans assessed as inhibition of fungal growth incubated for overnight by MTT based serial dilution method; assay type: functional
Candida tropicalis = experiment: Antifungal activity against Candida tropicalis assessed as inhibition of fungal growth incubated for overnight by MTT based serial dilution method; assay type: functional
Aspergillus fumigatus = experiment: Antifungal activity against Aspergillus fumigatus assessed as inhibition of fungal growth incubated for overnight by MTT based serial dilution method; assay type: functional
Escherichia coli [3] = experiment: Antibacterial activity against Escherichia coli JW5503 harboring tolC mutant assessed as inhibition of bacterial growth incubated for 16 to 20 hrs by two-fold serial dilution assay; assay type: functional; settings: time 16-20 hrs
[4] = system: Staphylococcus epidermidis; experiment: Antibacterial activity against Staphylococcus epidermidis assessed as zone of inhibition at 25 ug/ml; assay type: functional; settings: read-out: IZ
Escherichia coli [5] = experiment: Antibacterial activity against Escherichia coli assessed as zone of inhibition at 25 ug/ml; assay type: functional; settings: read-out: IZ
Proteus vulgaris = experiment: Antibacterial activity against Proteus vulgaris assessed as zone of inhibition at 25 ug/ml; assay type: functional; settings: read-out: IZ
Staphylococcus aureus [6] = experiment: Antimicrobial activity against methicillin-resistant Staphylococcus aureus assessed as inhibition of microbial growth incubated for 18 hrs by agar diffusion method; assay type: functional
Staphylococcus aureus [7] = experiment: Antibacterial activity against methicillin-resistant Staphylococcus aureus SK1 assessed as inhibition of bacterial growth by two-fold serial dilution method; assay type: functional
Escherichia coli [8] = experiment: Antimicrobial activity against Escherichia coli ATCC 25922 assessed as inhibition of microbial growth incubated for 24 hrs by two-fold serial dilution assay; assay type: functional
Pseudomonas aeruginosa = experiment: Antimicrobial activity against Pseudomonas aeruginosa ATCC 27953 assessed as inhibition of microbial growth incubated for 24 hrs by two-fold serial dilution assay; assay type: functional
Priestia megaterium = experiment: Antimicrobial activity against Bacillus megaterium ATCC 9885 assessed as inhibition of microbial growth incubated for 24 hrs by two-fold serial dilution assay; assay type: functional
Candida albicans [9] = experiment: Antimicrobial activity against Candida albicans NRRL Y-477 assessed as inhibition of microbial growth incubated for 48 hrs by two-fold serial dilution assay; assay type: functional
Bacillus subtilis [10] = experiment: Antimicrobial activity against Bacillus subtilis ATCC 6633 assessed as inhibition of microbial growth incubated for 24 hrs by two-fold serial dilution assay; assay type: functional
Staphylococcus aureus [11] = experiment: Antimicrobial activity against Staphylococcus aureus ATCC 29213 assessed as inhibition of microbial growth incubated for 24 hrs by two-fold serial dilution assay; assay type: functional
Klebsiella pneumoniae = experiment: Antimicrobial activity against Klebsiella pneumoniae ATCC 13883 assessed as inhibition of microbial growth incubated for 24 hrs by two-fold serial dilution assay; assay type: functional
Micrococcus luteus = experiment: Antimicrobial activity against Sarcina lutea assessed as inhibition of microbial growth incubated for 24 hrs by two-fold serial dilution assay; assay type: functional
Salmonella typhimurium = experiment: Antibacterial activity against Salmonella typhimurium TISTR 292 assessed as inhibition of bacterial growth by two-fold serial dilution method; assay type: functional, Salmonella enterica subsp. enterica serovar Typhimurium; settings: Salmonella enterica
Escherichia coli [12] = experiment: Antibacterial activity against Escherichia coli TISTR 780 assessed as inhibition of bacterial growth by two-fold serial dilution method; assay type: functional
Staphylococcus aureus [13] = experiment: Antibacterial activity against Staphylococcus aureus TISTR 1466 assessed as inhibition of bacterial growth by two-fold serial dilution method; assay type: functional
Staphylococcus aureus [14] = experiment: Antibacterial activity against Staphylococcus aureus assessed as inhibition of bacterial growth; assay type: functional, organism-based
Pasteurella multocida = experiment: Antibacterial activity against Pasteurella multocida assessed as inhibition of bacterial growth by agar well dilution assay; assay type: functional
Escherichia coli [15] = experiment: Antibacterial activity against Escherichia coli assessed as inhibition of bacterial growth by agar well dilution assay; assay type: functional
Bacillus subtilis [16] = experiment: Antibacterial activity against Bacillus subtilis assessed as inhibition of bacterial growth by agar well dilution assay; assay type: functional
Staphylococcus aureus [17] = experiment: Antibacterial activity against Staphylococcus aureus assessed as inhibition of bacterial growth by agar well dilution assay; assay type: functional
Bacillus subtilis [18] = experiment: Antibacterial activity against Bacillus subtilis assessed as zone of inhibition by agar-disc diffusion method; assay type: functional
Staphylococcus aureus [19] = experiment: Antibacterial activity against Staphylococcus aureus assessed as zone of inhibition by agar-disc diffusion method; assay type: functional

CC1=CC(=O)c2[nH]c3ccccc3c2C1=O [MURRAYAQUINONE A]
MIC (Staphylococcus aureus [1]): 50 µg/mL (≈ 237 µM)

COCn1c2c(c3cc(F)ccc31)Cc1cocc1C2
MIC (Candida albicans [2]): 7.81 µg/mL (≈ 28.8 µM) | MIC (Candida tropicalis): 7.81 µg/mL (≈ 28.8 µM) | MIC (Aspergillus fumigatus): 7.81 µg/mL (≈ 28.8 µM)

O=C(CCn1c2c(c3ccccc31)CCCC2)N1C[C@H]2C[C@H](C1)c1cccc(=O)n1C2
MIC (Escherichia coli [3]): 42.1 µg/mL (≈ 101 µM)

Cc1cccc2c3c([nH]c12)C(=O)/C(=C/c1ccc(Br)cc1)CC3
zone of inhibition at 25 µg/mL [4]: 15 mm | zone of inhibition at 25 µg/mL (Escherichia coli [5]): 15 mm | zone of inhibition at 25 µg/mL (Proteus vulgaris): 15 mm

C=C(C)C1Cc2c(cc(O)c3[nH]c4ccccc4c23)C(=O)O1 (centres undefined) [CLAUSAMINE A]
MIC (Staphylococcus aureus [6]): 64 µg/mL | MIC (Staphylococcus aureus [7]): 8 µg/mL (≈ 27.3 µM)

O=C(NN1C(=O)C(Cl)=C(Cl)C1=O)c1ccc(-n2c3c(c4ccccc42)CCCC3)cc1
MIC (Escherichia coli [8]): 25 µg/mL | MIC (Pseudomonas aeruginosa): 25 µg/mL | MIC (Priestia megaterium): 25 µg/mL | MIC (Candida albicans [9]): 25 µg/mL | MIC (Bacillus subtilis [10]): 25 µg/mL | MIC (Staphylococcus aureus [11]): 25 µg/mL | MIC (Klebsiella pneumoniae): 25 µg/mL | MIC (Micrococcus luteus): 25 µg/mL

CC1(C)C=Cc2c(ccc3[nH]c4ccc(C=O)cc4c23)O1
MIC (Salmonella typhimurium): 64 µg/mL (≈ 231 µM) | MIC (Escherichia coli [12]): 64 µg/mL (≈ 231 µM) | MIC (Staphylococcus aureus [13]): 64 µg/mL (≈ 231 µM) | MIC (Staphylococcus aureus [7]): 64 µg/mL (≈ 231 µM)

CC1(C)Oc2ccc3[nH]c4cc(O)c(C=O)cc4c3c2[C@@H](O)[C@H]1O
MIC (Salmonella typhimurium): 64 µg/mL (≈ 196 µM) | MIC (Escherichia coli [12]): 64 µg/mL (≈ 196 µM) | MIC (Staphylococcus aureus [13]): 64 µg/mL (≈ 196 µM) | MIC (Staphylococcus aureus [7]): 64 µg/mL (≈ 196 µM)

O=C(NN1C(=O)c2ccccc2C1=O)c1ccc(-n2c3c(c4ccccc42)CCCC3)cc1
MIC (Escherichia coli [8]): 25 µg/mL | MIC (Pseudomonas aeruginosa): 25 µg/mL | MIC (Priestia megaterium): 25 µg/mL | MIC (Candida albicans [9]): 25 µg/mL | MIC (Bacillus subtilis [10]): 25 µg/mL | MIC (Staphylococcus aureus [11]): 25 µg/mL | MIC (Klebsiella pneumoniae): 25 µg/mL | MIC (Micrococcus luteus): 25 µg/mL

COc1ccc2[nH]c3c4c(c(C)cc3c2c1)OC(C)(C)C=C4 [KOENIMBINE]
IC50 (Staphylococcus aureus [14]): 17 µM

Cc1ccc2[nH]c3c(c2c1)CC/C(=C\c1ccc(Br)cc1)C3=O
zone of inhibition at 25 µg/mL [4]: 15 mm | zone of inhibition at 25 µg/mL (Escherichia coli [5]): 15 mm | zone of inhibition at 25 µg/mL (Proteus vulgaris): 15 mm

C/C(=N\C(Cc1c[nH]cn1)C(=O)Oc1cc(C(=O)O)cc(O)c1O)C1CCCc2c1[nH]c1c([N+](=O)[O-])cc([N+](=O)[O-])cc21 (centres undefined)
MIC (Pasteurella multocida): 0.056 µg/mL (≈ 0.0945 µM) | MIC (Escherichia coli [15]): 0.056 µg/mL (≈ 0.0945 µM) | MIC (Bacillus subtilis [16]): 0.056 µg/mL (≈ 0.0945 µM) | MIC (Staphylococcus aureus [17]): 0.056 µg/mL (≈ 0.0945 µM)

COC(=O)c1cc(O)c2[nH]c3ccc4c(c3c2c1)C=CC(C)(C)O4
MIC (Salmonella typhimurium): 64 µg/mL (≈ 198 µM) | MIC (Escherichia coli [12]): 64 µg/mL (≈ 198 µM) | MIC (Staphylococcus aureus [13]): 64 µg/mL (≈ 198 µM) | MIC (Staphylococcus aureus [7]): 64 µg/mL (≈ 198 µM)

CC(C)=CCc1c(O)ccc2[nH]c3cc(O)c(C=O)cc3c12
MIC (Salmonella typhimurium): 64 µg/mL (≈ 217 µM) | MIC (Escherichia coli [12]): 64 µg/mL (≈ 217 µM) | MIC (Staphylococcus aureus [13]): 64 µg/mL (≈ 217 µM) | MIC (Staphylococcus aureus [7]): 64 µg/mL (≈ 217 µM)

NCC1CCCc2c1[nH]c1ccc(Cl)cc21 (centres undefined)
MIC (Escherichia coli [3]): 21.1 µg/mL (≈ 89.9 µM)

CC(C)=CCC[C@@]1(C)C=Cc2c(ccc3c2[nH]c2ccc(C=O)cc23)O1
IC50 (Staphylococcus aureus [14]): 11.7 µM

O=C(O)c1cn(C2CC2)c2cc(N3CCNCC3)c(F)cc2c1=O [CIPROFLOXACIN]
inhibition zone (IZ) (Bacillus subtilis [18]): 15 mm | inhibition zone (IZ) (Staphylococcus aureus [19]): 15 mm

CSC(=S)NNC(=O)c1ccc(-n2c3c(c4ccccc42)CCCC3)cc1
MIC (Escherichia coli [8]): 25 µg/mL | MIC (Pseudomonas aeruginosa): 25 µg/mL | MIC (Priestia megaterium): 25 µg/mL | MIC (Candida albicans [9]): 25 µg/mL | MIC (Bacillus subtilis [10]): 25 µg/mL | MIC (Staphylococcus aureus [11]): 25 µg/mL | MIC (Klebsiella pneumoniae): 25 µg/mL | MIC (Micrococcus luteus): 25 µg/mL

COc1cc2c3c([nH]c2cc1C)C(=O)C=C(C)C3=O
MIC (Staphylococcus aureus [1]): 50 µg/mL (≈ 196 µM)

COc1cc2[nH]c3c4c(c(C)cc3c2cc1OC)OC(C)(C)C=C4
IC50 (Staphylococcus aureus [14]): 20.9 µM
